US11548885B2, “NLRX1 ligands” (Landos Biopharma, Inc., priority 2020, dated 2023)

Experiments:
CD4+ T cells = test: Immunological screening in vitro in CD4+ T cells (flow cytometry of TNFα+ and IFNγ+ cells); type: cell-based, C57BL/6 mice; settings: 50 nanomolar, 24 h; for production of TNFα / TNF+ CD4+ T cells: anti-CD3/CD28, PMA and ionomycin last 6 h
Source text: Cell culture. Spleens were excised from C57BL/6 mice. Spleens were crushed between the frosted ends of microscope slides and filtered to provide a cellular suspension. Red blood cells were lysed through hypotonic lysis. Remaining cells were washed and filtered. CD4+ T cells were enriched within the suspension using magnetic sorting based negative selection. Cells were collected and plated within 96 well plates coated with anti-CD3/CD28 and cultured in the presence of NX-64-2, NX-64-3, NX-64-4, NX-64-5, or NX-64-9 at 0 or 50 nanomolar for 24 h. During the last 6 h of culture, cells were stimulated with phorbol 12-myristate-13-acetate (PMA) and ionomycin.
Immunological analysis. Cells were collected from 96 well plates and stained with a cocktail of antibodies for immunophenotyping by flow cytometry. Culture supernatant was collected and assayed for cytokine concentrations by cytometric bead array. Data was captured on a BD FACS Celesta and analyzed using FACSDiva.

OVA-induced model = OVA-induced model of experimental asthma; type: in vivo, C57BL6 mice; settings: oral 20 mg/kg daily days 14-17, day 18, flow cytometry
Experimental: OVA-induced model. C57BL6 mice were immunized with 10 μg of ovalbumin (OVA) in aluminum hydroxide gel by intraperitoneal injection on day 0 and 7 of the experiment. Mice were then exposed to OVA (8% w/v) by aerosolization for 25 minutes daily between days 14 and 17. Treatment with NX-64-3 (20 mg/kg) or vehicle control occurred daily between days 14 and 17 by oral gavage. Dosage was calculated based off mean body weights. Immunological analysis. Lungs were collected on day 18. Lung tissue was minced and digested in RPMI supplemented with FBS, HEPES, and calcium chloride containing 300 U/mL collagenase and 50 U/mL DNase for 45 minutes at 37° C. After filtration, red blood cells were lysed. Cells were labeled with mixtures of extracellular (CD45, CD3, CD4, CD8, MHCII, CD11b, CD11c, SiglecF, Ly6C) and intracellular (IL10) antibodies in a sequential live staining in 96-well plates in preparation for flow cytometry. Data was captured on a BD FACS Celesta and analyzed using FACSDiva.

[1] = tested on: mice challenged with MOG emulsion; test: MOG35-55 induced experimental autoimmune encephalomyelitis model; type: in vivo, C57BL6 mice; settings: oral 20 mg/kg daily
mice challenged with DSS = test: DSS model of colitis (acute model of IBD); type: in vivo; settings: oral 20 mg/kg once daily
Experimental: DSS model. Mice were given DSS in drinking water for seven days to induce disruption of the epithelial layer. At project initiation, mice were 8 weeks of age and began dosing 24 hours after being placed on DSS. Mice were weighed and scored daily for symptoms of disease (diarrhea, rectal bleeding, rectal inflammation, overall behavior). NX-64-3 was prepared within a 0.5% methylcellulose (12-15 cP) solution. Dosage used was 20 mg/kg delivered once daily. Dosage was calculated based off mean body weights for each gender. Oral dosage was delivered by orogastric gavage of dosage in 0.2 mL volume. Flow Cytometry. Colons were collected into RPMI/FBS buffer containing collagenase (300 U/mL) and DNase (50 U/mL) for digestion. Tissues were digested for 60 minutes under stirring at 37° C. Resultant cellular suspensions were filtered through 100 μm strainers, centrifuged (300×g, 8 min), and washed in fresh RPMI. Following filtration of the resulting single cell suspensions, immune cells were purified by Percoll gradient of cell-containing 40% Percoll overlayed onto 70% Percoll solution. After centrifugation, interphase was collected and washed to obtain enriched colonic lamina propria cell fractions. Cells were labeled with mixtures of extracellular (CD45, CD3, CD4, CD8, CD19, NK1.1, F4/80, CD11b, Gr1) antibodies in a sequential live staining in 96-well plates. […]

[2] = day 18, RNA normalized to beta-actin

Row | Compound | production of TNFα / TNF+ CD4+ T cells (CD4+ T cells) | percentage of IL10+CD4+ T cells within the lung (OVA-induced model) | percentage of eosinophils within the lung (OVA-induced model) | recovery from neurological deficiencies [1] | expression of II1b in spinal cord [1, 2] | expression of Tnf in spinal cord [1, 2] | disease activity index ([1]; scored 0-4 daily) | severity of macroscopic lesions (colon) (mice challenged with DSS; 7 days of DSS) | presence of neutrophils in the colonic lamina propria (mice challenged with DSS; day 7, flow cytometry) | production of IFNγ / IFNγ+ CD4+ T cells, in words (CD4+ T cells; relative to vehicle control)
1 | Cn1cc(-c2ccc3[nH]c(Cc4nc(C5=CCCCO5)no4)nc(=O)c3c2)cn1 [NX-64-4, 2-((3-(3,4-dihydro-2H-pyran-6-yl)-1,2,4-oxadiazol-5-yl)methyl)-6-(1-methyl-1H-pyrazol-4-yl)quinazolin-4(1H)-one] | significant reduction |  |  |  |  |  |  |  |  | 
2 | O=c1nc(Cc2nc(C3=CCCCO3)no2)[nH]c2ccc(-c3ccc(O)nc3)cc12 [NX-64-3, 2-((3-(3,4-dihydro-2H-pyran-6-yl)-1,2,4-oxadiazol-5-yl)methyl)-6-(6-hydroxypyridin-3-yl)quinazolin-4(1H)-one] | significant reduction | increased | reduced | accelerated | reduced | reduced | reduced | decreased | decreased | greatest magnitude of response
3 | Cn1cc(-c2ccc3[nH]c(Cc4nc(-c5cc(=O)cc[nH]5)no4)nc(=O)c3c2)cn1 [NX-64-9, 2-((3-(4-oxo-1H-pyridin-2-yl)-1,2,4-oxadiazol-5-yl)methyl)-6-(1-methyl-1H-pyrazol-4-yl)quinazolin-4(1H)-one] | significant reduction |  |  |  |  |  |  |  |  | 
